This is an account of results in ChEMBL document CHEMBL1201862, “PubChem BioAssay data set” (2004).

Each structure is given as a SMILES string.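 These data come from cells grown in 96-well plates and exposed to compound for 48 hours at five concentrations. GI50 is the concentration that inhibits growth by half.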 Activity calls are given as the source filed them. No stated cut-off is given here; in the data, active = GI50 up to about 1.1 µM and inactive = higher.

Among the test systems are 786-0; CCRF-CEM; COLO 205; HT-29; Hs-578T; K562; KM12; MDA-MB-231; MDA-N; NCI-H23; NCI-H460; NCI/ADR-RES; OVCAR-5; OVCAR-8; RXF 393; SF-539; SK-MEL-28; SK-MEL-2; SN12C; TK-10.
Common to all, as to test: NCI anticancer screen, dose series, 48 h

`c1ccc(NN(Cc2cnccn2)c2ccccc2)cc1`: the GI50 is > 100 µM (inactive) in the assay with 786-0; 10.5 µM (inactive) in the assay on CCRF-CEM; 84.3 µM (inactive) in the assay on COLO 205; 97.3 µM (inactive) in the assay with HT-29; > 100 µM (inactive) in the assay with Hs-578T; 47.5 µM (inactive) with K562. The GI50 with KM12 was > 100 µM (inactive); in the assay with MDA-MB-231 it was 76.9 µM (inactive); with MDA-N, 40.2 µM (inactive); with NCI-H23, 83 µM (inactive); with NCI-H460, 91.8 µM (inactive); with NCI/ADR-RES it was 40.5 µM (inactive). In addition, the GI50 was > 100 µM (inactive) with OVCAR-5; 66.7 µM (inactive) with OVCAR-8; > 100 µM (inactive) in the assay with RXF 393; > 100 µM (inactive) with SF-539; > 100 µM (inactive) with SK-MEL-28; > 100 µM (inactive) with SK-MEL-2. In addition, the values for the GI50 in the assay with SN12C and in the assay with TK-10 were 63.8 µM (inactive) and > 100 µM (inactive), respectively.

Regarding `Cc1ccc2c(=O)cc(-c3ccc(-c4ccccc4)s3)[nH]c2n1`, the GI50 was 16.1 µM (inactive) in the assay on 786-0; > 25.2 µM (inactive) in the assay with CCRF-CEM; > 100 µM (inactive) with COLO 205; > 100 µM (inactive) in the assay with HT-29; > 46.7 µM (inactive) with Hs-578T; 11.9 µM (inactive) in the assay with K562. The GI50 in the assay with KM12 was > 24.5 µM (inactive); with MDA-MB-231 it was 39.7 µM (inactive); in the assay with MDA-N, 4.98 µM (inactive); in the assay with NCI-H23, 22.1 µM (inactive); in the assay on NCI-H460 it was > 59.7 µM (inactive); in the assay on NCI/ADR-RES it was > 57.1 µM (inactive). The GI50 was > 100 µM (inactive) in the assay on OVCAR-5; > 58.3 µM (inactive) with OVCAR-8; > 59.8 µM (inactive) in the assay on RXF 393; 13 µM (inactive) in the assay on SF-539; > 100 µM (inactive) in the assay on SK-MEL-28; > 100 µM (inactive) with SK-MEL-2. The GI50 with SN12C is 58.6 µM (inactive); with TK-10, > 48.3 µM (inactive).

For `Cc1cc(-c2nc3ccc(F)cc3s2)ccc1NC(=O)C(N)CCCCN` (stereo not given), the GI50 was 3.21 µM (inactive) in the assay on 786-0; 2.71 µM (inactive) in the assay on CCRF-CEM; 4.51 µM (inactive) with COLO 205; 3.54 µM (inactive) with HT-29; 5.12 µM (inactive) in the assay on Hs-578T; 3.45 µM (inactive) in the assay with K562. The GI50 in the assay with KM12 was 2.02 µM (inactive); with MDA-MB-231, 9.38 µM (inactive); in the assay on MDA-N, 2.52 µM (inactive); in the assay with NCI-H23, 4.73 µM (inactive); with NCI-H460 it was 1.82 µM (inactive); in the assay on NCI/ADR-RES it was 15.1 µM (inactive). Besides, the GI50 is 7.64 µM (inactive) with OVCAR-5; 5.97 µM (inactive) in the assay with OVCAR-8; 10.4 µM (inactive) in the assay with RXF 393; 3.27 µM (inactive) in the assay with SF-539; 18.4 µM (inactive) in the assay on SK-MEL-28; 10.1 µM (inactive) with SK-MEL-2. The GI50 in the assay on SN12C is 7.76 µM (inactive); in the assay with TK-10, 0.0731 µM (active).

With `CCOC(=O)C(CCSC)(CCSC)C(=O)OCC`, the GI50 in the assay with 786-0, in the assay with CCRF-CEM, in the assay with COLO 205, in the assay with HT-29, with Hs-578T and in the assay on K562 was > 100 µM (inactive) each time. Also, the GI50 with KM12, in the assay on MDA-MB-231, in the assay with MDA-N, with NCI-H23, with NCI-H460 and in the assay on NCI/ADR-RES was > 100 µM (inactive) each time. Also, the GI50 in the assay on OVCAR-5, in the assay on OVCAR-8, in the assay with RXF 393, with SF-539, in the assay on SK-MEL-28 and in the assay on SK-MEL-2 was > 100 µM (inactive) in each case. Besides, the GI50 with SN12C and in the assay with TK-10 was > 100 µM (inactive) each time.

Turning to `CN1C(=O)c2ccccc2C(O)(c2ccccc2)C1(O)c1ccccc1` (stereo not given), the GI50 with 786-0 is > 100 µM (inactive); with CCRF-CEM, > 100 µM (inactive); in the assay with COLO 205, > 100 µM (inactive); in the assay with HT-29, > 100 µM (inactive); with Hs-578T it was 29.2 µM (inactive); in the assay on K562, > 100 µM (inactive). Also, the GI50 in the assay with KM12 is > 100 µM (inactive); in the assay with MDA-MB-231, > 100 µM (inactive); in the assay on MDA-N, > 100 µM (inactive); in the assay on NCI-H23, 81.8 µM (inactive); with NCI-H460 it was 19.2 µM (inactive); with NCI/ADR-RES, > 100 µM (inactive). For the same molecule, the GI50 was > 100 µM (inactive) with OVCAR-5; > 100 µM (inactive) in the assay on OVCAR-8; 83.9 µM (inactive) in the assay on RXF 393; > 100 µM (inactive) in the assay with SF-539; > 100 µM (inactive) with SK-MEL-28; > 100 µM (inactive) with SK-MEL-2. Moreover, the GI50 with SN12C was > 100 µM (inactive); with TK-10, 68.7 µM (inactive).

As for `CCCCCCCCCCCCCCCCC(=O)NCC(=O)NCC(=O)NC(Cc1ccccc1)C(=O)Oc1ccc([N+](=O)[O-])cc1` (stereo not given), the GI50 in the assay on 786-0 is 27.5 µM (inactive); in the assay with CCRF-CEM, 22 µM (inactive); with COLO 205, 20.2 µM (inactive); in the assay with HT-29 it was 29.3 µM (inactive); with Hs-578T it was > 100 µM (inactive); with K562, 23.3 µM (inactive). Moreover, the GI50 in the assay on KM12 is 22.7 µM (inactive); in the assay with MDA-MB-231, 23.4 µM (inactive); in the assay on MDA-N, 48.5 µM (inactive); in the assay on NCI-H23, 73.1 µM (inactive); in the assay with NCI-H460 it was 18.3 µM (inactive); in the assay on NCI/ADR-RES it was 20.6 µM (inactive). Besides, the GI50 was 27.5 µM (inactive) with OVCAR-5; 19.2 µM (inactive) with OVCAR-8; 23.4 µM (inactive) in the assay on RXF 393; 27.6 µM (inactive) with SF-539; 15.8 µM (inactive) in the assay on SK-MEL-28; 48.4 µM (inactive) in the assay on SK-MEL-2. Further, the GI50 in the assay with SN12C is 19.7 µM (inactive); in the assay with TK-10 it was 71 µM (inactive).

As for `O=Cc1ccc2c(c1)CC1(C2)Cc2ccc3c(c2C1)CCC3` (stereo not given), the GI50 in the assay with 786-0 was 14.4 µM (inactive); in the assay with CCRF-CEM, 5.14 µM (inactive); with COLO 205 it was 20.8 µM (inactive); with HT-29, 19 µM (inactive); in the assay with Hs-578T, 7.41 µM (inactive); with K562, 6.34 µM (inactive). For the same molecule, the GI50 was 11.4 µM (inactive) in the assay on KM12; 3.76 µM (inactive) with MDA-MB-231; 2.19 µM (inactive) with MDA-N; 14.6 µM (inactive) in the assay with NCI-H23; 17.2 µM (inactive) with NCI-H460; 7.19 µM (inactive) in the assay with NCI/ADR-RES. In addition, the GI50 in the assay on OVCAR-5 is > 44.9 µM (inactive); in the assay on OVCAR-8 it was 13.1 µM (inactive); in the assay with RXF 393, 11.2 µM (inactive); in the assay on SF-539, 9.02 µM (inactive); with SK-MEL-28, 12.7 µM (inactive); in the assay with SK-MEL-2, 4.02 µM (inactive). Further, the values for the GI50 in the assay on SN12C and with TK-10 were 8.45 µM (inactive) and 16.6 µM (inactive), respectively.

With `O=C1CSCC(=O)Nc2ccccc2N1`, the GI50 in the assay with 786-0, in the assay on CCRF-CEM, with COLO 205, with HT-29, in the assay on Hs-578T and in the assay on K562 was > 100 µM (inactive) in each case. Also, the GI50 in the assay with KM12, in the assay on MDA-MB-231, with MDA-N, with NCI-H23, with NCI-H460 and in the assay on NCI/ADR-RES was > 100 µM (inactive) in each case. Further, the GI50 in the assay with OVCAR-5, with OVCAR-8, with RXF 393, with SF-539, in the assay on SK-MEL-28 and in the assay on SK-MEL-2 was > 100 µM (inactive) throughout. Moreover, the GI50 with SN12C and in the assay on TK-10 was > 100 µM (inactive) in each case.

`Cc1ccc2c(O)c3c(cc2c1)C(=O)c1c2c(cc(O)c1C3=O)C1(C)OC(O2)C(O)C(N(C)C)C1O` (stereo not given): the GI50 with 786-0 is 0.617 µM (active); with CCRF-CEM, 0.154 µM (active); with COLO 205 it was 0.91 µM (active); with HT-29 it was 0.495 µM (active); in the assay on Hs-578T it was 1.02 µM (active); with K562, 0.167 µM (active). The GI50 was 0.59 µM (active) in the assay with KM12; 1.33 µM (inactive) with MDA-MB-231; 1.63 µM (inactive) in the assay with MDA-N; 1.26 µM (inactive) in the assay with NCI-H23; 0.109 µM (active) in the assay on NCI-H460; 1.4 µM (inactive) in the assay on NCI/ADR-RES. The GI50 with OVCAR-5 is 1.97 µM (inactive); with OVCAR-8, 1.19 µM (inactive); in the assay on RXF 393 it was 1.21 µM (inactive); in the assay on SF-539 it was 1.11 µM (active); in the assay on SK-MEL-28, 1.32 µM (inactive); in the assay on SK-MEL-2, 1.85 µM (inactive). The GI50 was 1.37 µM (inactive) with SN12C and 1.69 µM (inactive) in the assay with TK-10.

As for `CN(N=O)C(=O)Nc1ccc(C(=O)O)cc1`, the GI50 in the assay on 786-0, in the assay on CCRF-CEM, with COLO 205, in the assay with HT-29, with Hs-578T and in the assay on K562 was > 100 µM (inactive) in each case. Moreover, the GI50 in the assay on KM12, in the assay with MDA-MB-231, in the assay with MDA-N, with NCI-H23, in the assay on NCI-H460 and with NCI/ADR-RES was > 100 µM (inactive) throughout. In addition, the GI50 with OVCAR-5, in the assay with OVCAR-8, with RXF 393, with SF-539, in the assay on SK-MEL-28 and in the assay on SK-MEL-2 was > 100 µM (inactive) throughout. The GI50 in the assay on SN12C and in the assay on TK-10 was > 100 µM (inactive) each time.
